Test results reported in PubChem BioAssay (NCI).
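96-well plates; 48 h exposure; 5 concentrations. Endpoints by linear interpolation between flanking doses. Not reached: highest tested concentration assigned. TGI denotes the concentration required for complete inhibition of growth.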

Tests used:
Assay in all cases: growth of human tumour cells (NCI), 48 h
786-0 renal = system: 786-0 renal
A498 renal = system: A498 renal
A549 NSCLC = system: A549 NSCLC
ACHN renal = system: ACHN renal
BT-549 breast = system: BT-549 breast
CAKI-1 renal = system: CAKI-1 renal
COLO 205 colon = system: COLO 205 colon
DU-145 prostate = system: DU-145 prostate
EKVX NSCLC = system: EKVX NSCLC
HCC-2998 colon = system: HCC-2998 colon
HCT-116 colon = system: HCT-116 colon
HCT-15 colon = system: HCT-15 colon
HL-60(TB) leukemia = system: HL-60(TB) leukemia
HOP-62 NSCLC = system: HOP-62 NSCLC
HOP-92 NSCLC = system: HOP-92 NSCLC
HS 578T breast = system: HS 578T breast
HT29 colon = system: HT29 colon
IGROV1 ovarian = system: IGROV1 ovarian
K-562 leukemia = system: K-562 leukemia
KM12 colon = system: KM12 colon
LOX IMVI melanoma = system: LOX IMVI melanoma
M14 melanoma = system: M14 melanoma
MALME-3M melanoma = system: MALME-3M melanoma
MCF7 breast = system: MCF7 breast
MDA-MB-231 breast = system: MDA-MB-231 breast
MDA-MB-435 = system: MDA-MB-435
MDA-N = system: MDA-N
MOLT-4 leukemia = system: MOLT-4 leukemia
NCI-H226 lung = system: NCI-H226 lung
NCI-H23 lung = system: NCI-H23 lung
NCI-H460 lung = system: NCI-H460 lung
NCI-H522 lung = system: NCI-H522 lung
NCI/ADR-RES ovarian = system: NCI/ADR-RES ovarian
OVCAR-3 ovarian = system: OVCAR-3 ovarian
OVCAR-4 ovarian = system: OVCAR-4 ovarian
OVCAR-5 ovarian = system: OVCAR-5 ovarian
PC-3 prostate = system: PC-3 prostate
RPMI-8226 leukemia = system: RPMI-8226 leukemia
SF-268 CNS = system: SF-268 CNS
SF-295 CNS = system: SF-295 CNS
SF-539 CNS = system: SF-539 CNS
SK-MEL-2 melanoma = system: SK-MEL-2 melanoma
SK-MEL-28 melanoma = system: SK-MEL-28 melanoma
SK-MEL-5 melanoma = system: SK-MEL-5 melanoma
SK-OV-3 ovarian = system: SK-OV-3 ovarian
SN12C renal = system: SN12C renal
SNB-19 CNS = system: SNB-19 CNS
SNB-75 CNS = system: SNB-75 CNS
SR leukemia = system: SR leukemia
SW-620 colon = system: SW-620 colon
T-47D breast = system: T-47D breast
TK-10 renal = system: TK-10 renal
U251 CNS = system: U251 CNS
UACC-257 melanoma = system: UACC-257 melanoma
UACC-62 melanoma = system: UACC-62 melanoma
UO-31 renal = system: UO-31 renal
CCRF-CEM leukemia = system: CCRF-CEM leukemia
OVCAR-8 ovarian = system: OVCAR-8 ovarian
RXF 393 renal = system: RXF 393 renal

With `C/C(=N\NC(=S)Nc1ccc(Cl)cc1)c1nc2ncccc2[nH]1` the TGI (786-0 renal) was 29.7 µM, the TGI (A498 renal) was 20.2 µM and the TGI (A549 NSCLC) was > 100 µM. It also gave a TGI (ACHN renal) of 15.8 µM, a TGI (BT-549 breast) of 11.1 µM and a TGI (CAKI-1 renal) of 33.2 µM. It also gave a TGI (COLO 205 colon) of 17.5 µM, a TGI (DU-145 prostate) of 14.1 µM and a TGI (EKVX NSCLC) of 13.1 µM. It also gave a TGI (HCC-2998 colon) of 21.1 µM, a TGI (HCT-116 colon) of 13 µM and a TGI (HCT-15 colon) of 14.5 µM. For the same compound, the TGI (HL-60(TB) leukemia) was > 100 µM, the TGI (HOP-62 NSCLC) was 18.1 µM and the TGI (HOP-92 NSCLC) was 5.75 µM. For the same compound, the TGI (HS 578T breast) was 71.8 µM, the TGI (HT29 colon) was 14.7 µM and the TGI (IGROV1 ovarian) was 21.5 µM. The TGI (K-562 leukemia) was 44.2 µM, the TGI (KM12 colon) was 16.4 µM and the TGI (LOX IMVI melanoma) was 13.1 µM. The TGI (M14 melanoma) was 6.54 µM, the TGI (MALME-3M melanoma) was 15.7 µM and the TGI (MCF7 breast) was 11.2 µM. The TGI (MDA-MB-231 breast) was > 100 µM, the TGI (MDA-MB-435) was 15.1 µM and the TGI (MDA-N) was 23.1 µM. For the same compound, the TGI (MOLT-4 leukemia) was 22.2 µM, the TGI (NCI-H226 lung) was 8.25 µM and the TGI (NCI-H23 lung) was 21.5 µM. It also gave a TGI (NCI-H460 lung) of 4.14 µM, a TGI (NCI-H522 lung) of 20.2 µM and a TGI (NCI/ADR-RES ovarian) of 53.4 µM. The TGI (OVCAR-3 ovarian) was 10.5 µM, the TGI (OVCAR-4 ovarian) was 41.4 µM and the TGI (OVCAR-5 ovarian) was 21.3 µM. For the same compound, the TGI (PC-3 prostate) was 17.4 µM, the TGI (RPMI-8226 leukemia) was > 100 µM and the TGI (SF-268 CNS) was > 100 µM. For the same compound, the TGI (SF-295 CNS) was 13.5 µM, the TGI (SF-539 CNS) was 8.27 µM and the TGI (SK-MEL-2 melanoma) was 22.5 µM. It also gave a TGI (SK-MEL-28 melanoma) of 13.3 µM, a TGI (SK-MEL-5 melanoma) of 6.5 µM and a TGI (SK-OV-3 ovarian) of 60.8 µM. The TGI (SN12C renal) was 31.4 µM, the TGI (SNB-19 CNS) was > 100 µM and the TGI (SNB-75 CNS) was 25.4 µM. The TGI (SR leukemia) was > 100 µM, the TGI (SW-620 colon) was 35.5 µM and the TGI (T-47D breast) was 20.9 µM. For the same compound, the TGI (TK-10 renal) was 5.12 µM, the TGI (U251 CNS) was 14.5 µM and the TGI (UACC-257 melanoma) was 7.75 µM. The TGI (UACC-62 melanoma) was 12.8 µM and the TGI (UO-31 renal) was 5.13 µM.

For `CC1=NN(c2ccccc2)C(=O)C1N=Nc1ccc(S(N)(=O)=O)cc1` (centres undefined), the TGI (786-0 renal) was > 100 µM, the TGI (A498 renal) was > 100 µM and the TGI (A549 NSCLC) was > 100 µM. For the same compound, the TGI (ACHN renal) was > 100 µM, the TGI (BT-549 breast) was > 100 µM and the TGI (CAKI-1 renal) was > 100 µM. For the same compound, the TGI (CCRF-CEM leukemia) was > 100 µM, the TGI (COLO 205 colon) was > 100 µM and the TGI (DU-145 prostate) was > 100 µM. The TGI (EKVX NSCLC) was > 100 µM, the TGI (HCT-116 colon) was > 100 µM and the TGI (HCT-15 colon) was > 100 µM. For the same compound, the TGI (HL-60(TB) leukemia) was > 100 µM, the TGI (HOP-62 NSCLC) was > 100 µM and the TGI (HOP-92 NSCLC) was > 100 µM. The TGI (HS 578T breast) was > 100 µM, the TGI (HT29 colon) was > 100 µM and the TGI (IGROV1 ovarian) was > 100 µM. For the same compound, the TGI (K-562 leukemia) was > 100 µM, the TGI (KM12 colon) was > 100 µM and the TGI (LOX IMVI melanoma) was > 100 µM. For the same compound, the TGI (M14 melanoma) was > 100 µM, the TGI (MALME-3M melanoma) was > 100 µM and the TGI (MCF7 breast) was > 100 µM. For the same compound, the TGI (MDA-MB-231 breast) was > 100 µM, the TGI (MDA-MB-435) was > 100 µM and the TGI (MDA-N) was > 100 µM. For the same compound, the TGI (MOLT-4 leukemia) was > 100 µM, the TGI (NCI-H226 lung) was > 100 µM and the TGI (NCI-H23 lung) was > 100 µM. The TGI (NCI-H460 lung) was > 100 µM, the TGI (NCI-H522 lung) was > 100 µM and the TGI (NCI/ADR-RES ovarian) was > 100 µM. The TGI (OVCAR-3 ovarian) was > 100 µM, the TGI (OVCAR-4 ovarian) was > 100 µM and the TGI (OVCAR-5 ovarian) was > 100 µM. The TGI (OVCAR-8 ovarian) was > 100 µM, the TGI (PC-3 prostate) was > 100 µM and the TGI (RPMI-8226 leukemia) was > 100 µM. For the same compound, the TGI (RXF 393 renal) was > 100 µM, the TGI (SF-268 CNS) was > 100 µM and the TGI (SF-295 CNS) was > 100 µM. For the same compound, the TGI (SF-539 CNS) was > 100 µM, the TGI (SK-MEL-2 melanoma) was > 100 µM and the TGI (SK-MEL-28 melanoma) was > 100 µM. The TGI (SK-MEL-5 melanoma) was > 100 µM, the TGI (SK-OV-3 ovarian) was > 100 µM and the TGI (SN12C renal) was > 100 µM. The TGI (SNB-19 CNS) was > 100 µM, the TGI (SNB-75 CNS) was > 100 µM and the TGI (SR leukemia) was > 100 µM. The TGI (SW-620 colon) was > 100 µM, the TGI (T-47D breast) was > 100 µM and the TGI (TK-10 renal) was > 100 µM. The TGI (U251 CNS) was > 100 µM, the TGI (UACC-257 melanoma) was > 100 µM and the TGI (UACC-62 melanoma) was > 100 µM. The TGI (UO-31 renal) was > 100 µM.
